BigSolDB 2.1

## c1ccc2c(c1)sc1ccccc12
In acetonitrile, 278.15 K
  solubility (mole fraction): 0.00126
In acetonitrile, 283.15 K
  solubility (mole fraction): 0.00163
In acetonitrile, 288.65 K
  solubility (mole fraction): 0.00192
In acetonitrile, 293.15 K
  solubility (mole fraction): 0.00242
In acetonitrile, 298.15 K
  solubility (mole fraction): 0.0029
In acetonitrile, 303.15 K
  solubility (mole fraction): 0.00331
In acetonitrile, 308.15 K
  solubility (mole fraction): 0.00406
In acetonitrile, 313.15 K
  solubility (mole fraction): 0.00478
In acetonitrile, 318.15 K
  solubility (mole fraction): 0.0056
In acetonitrile, 323.15 K
  solubility (mole fraction): 0.00668
In acetonitrile, 328.15 K
  solubility (mole fraction): 0.00782
In acetonitrile, 333.15 K
  solubility (mole fraction): 0.00917
In methanol, 278.15 K
  solubility (mole fraction): 0.00454
In methanol, 283.15 K
  solubility (mole fraction): 0.00611
In methanol, 288.65 K
  solubility (mole fraction): 0.00845
In methanol, 293.15 K
  solubility (mole fraction): 0.0118
In methanol, 298.15 K
  solubility (mole fraction): 0.0152
In methanol, 303.15 K
  solubility (mole fraction): 0.0189
In methanol, 308.15 K
  solubility (mole fraction): 0.0241
In methanol, 313.15 K
  solubility (mole fraction): 0.0321
In methanol, 318.15 K
  solubility (mole fraction): 0.0402
In methanol, 323.15 K
  solubility (mole fraction): 0.0506
In methanol, 328.15 K
  solubility (mole fraction): 0.0639
In methanol, 333.15 K
  solubility (mole fraction): 0.0839
